Measurements published in patent publication US8476064B2, “Inhibition assay method and device for detection of antibiotics” (Charm Sciences, Inc., priority 2006, dated 2013).

Assays:
B.st. spores [1] = experiment: Antibiotic detection test in spiked milk, borate/succinate culture of Example 6 (Table 4); assay type: cell-based, Bacillus (Geobacillus) Stearothermophilus; design: key to Color 1 / Color 2: Color result 1 and 2 is a negative result; Color result 1 and 2 is a negative result; 3 is a borderline result; 4 and 5 is a positive result; 4 and 5 is a positive result; details: for % Pos (Color 2) / Color 2: after 16 hours at room temperature; for % Pos (Color 1) / Color 1: immediately after test completion
B.st. spores [2] = experiment: Single service kidney swab microbial growth inhibition test, culture of Example 1, with or without beta-lactam receptor; assay type: cell-based, Bacillus (Geobacillus) Stearothermophilus; details: for test result With receptor: with 1 U receptor
Protocol: A Bromocresol purple (BCP)/Tris Solution was prepared by combining 25 mL of a Trizma Base solution (TBS), the solution including 2.5 grams Trizma Base in 100 mL of reverse osmosis/deionized water (RO/DI Water), with 100 milligrams of BCP and mixing well. The media was prepared by dissolving 5 grams glucose and 1 gram Mueller Hinton Broth (Mueller Hinton broth includes, in purified filtered water, 2 grams per liter (g/L) beef extract, 17.5 g/L casein hydrolysate acid and 1.5 g/L starch, pH 7.3 at 25 degrees C) into 100 mL RO/DI Water. Then a 0.01 mg/mL solution of trimethoprim in RO/DI Water was prepared and 1.2 mL was added to the media. Next 20 mL of BCP/Tris (sterile filtered through 0.45 micron filter) was added to the media.
Agar was prepared by combining 0.3 grams Difco Bacto-Agar (Item #0140-01), 0.225 NaCl and 17.485 RO/DI Water. The mixture was heated to 95° C. and then removed from the heat and allowed to cool to 75° C. Next 6 mL of media (prepared as described above with BCP/Tris) was added to the agar and mixed for 5 minutes. The mixture was cooled to 57° C. and 1 mL spore solution (concentration of 1 billion cfu/mL) was added and mixed together for 5 minutes. 0.200 mL was dispensed into the bottom of a vial 4.
The dispensed vial 4 was prepared as described in example 1. An extractant was prepared by adding 4.8 grams of 47.2% Trizma Base and 52.5% Potassium Phosphate Monobasic to 1000 mL RO/DI Water (pH should be 7.5+/−0.10). The extractant was sealed within the niblet 5 and the niblet was added to the vial 4. The vial 4 was heat sealed with foil.
The single service kidney swab procedure was run by first making a 3 inch incision into kidney. The swab 1 was then withdrawn from the test unit, the test unit in the form of a POCKETSWAB, by gently pulling and twisting the handle 2 out of the test unit body 7. The swab 1 was then inserted into the incision of the kidney and allowed to sit for 15 minutes to allow full absorption of liquid into the swab 1. The swab 1 was reinserted by gently pushing down and twisting to engage the threads 6 and screwing the handle down slowly about halfway. The swab tip 3 punctured the seals 12, 13 & 14 immersing the swab tip 3 into the extractant within the niblet 5 where it sat for 2 minutes. The swab 1 was then screwed down all the way. After shaking and tapping the vial 4 to get residual liquid into the bottom of the vial 4 and in contact with the culture 15, we placed the vial 4 into a heat block set at 67° C. and incubated for 2.5 hours (if urine is tested instead of kidney, incubate for 4 hours).
Culture is prepared as in Example 1. Prior to dispensing 200 microliters into the vial 4, antibiotic binder is prepared, in this example an antibiotic binder from the cell wall of B.st., also known as receptor. Varying amounts of inhibitory receptor units are mixed into the culture. Receptor is defined as protein removed from cellular membrane of B.st. A receptor unit (1 U) is the amount of receptor that will, in the test, reverse the culture growth inhibition of 12.5 ppb of penicillin G.
Results in Table 1 are from tests using the culture described in Example 1 and with the addition of receptor added into rinse buffer (rinse buffer composition is 4.8 grams of 47.2% Trizma Base and 52.5% Potassium Phosphate Monobasic to 1000 mL RO/DI Water) at 0, 0.3 units (U), 1.0 U, 2.0 U, 5.0 Upper test. Sample contained the following amounts of penicillin G: 0, 5 parts per billion (ppb), 10 ppb, 12.5 ppb, 25 ppb and 50 ppb. As shown, 1.0 U was able to reverse the result of a 12.5 ppb penicillin G sample. Results are either positive (+) or negative (−).
Results are either positive (+), negative (−) or borderline between positive and negative (+/−). Abbreviations are penicillin G (PenG); sulfamethazine (SMZ); sulfadimethoxine (SDM); tylosin (TY); gentamicin (G); oxytetracycline (OT). […]

[3] = drug concentration 300 (unit not given)
[4] = drug concentration 500 (unit not given)
[5] = drug concentration 800 (unit not given)
[6] = drug concentration 400 (unit not given)
[7] = drug concentration 600 (unit not given)

CC[C@H]1OC(=O)C[C@@H](O)[C@H](C)[C@@H](O[C@@H]2O[C@H](C)[C@@H](O[C@H]3C[C@@](C)(O)[C@@H](O)[C@H](C)O3)[C@H](N(C)C)[C@H]2O)[C@@H](CC=O)C[C@@H](C)C(=O)/C=C/C(C)=C/[C@@H]1CO[C@@H]1O[C@H](C)[C@@H](O)[C@@H](OC)[C@H]1OC [TY, tylosin]
% Pos (Color 2) (B.st. spores [1]; milk spiked at 40 ppb): 100% | Color 2 (B.st. spores [1]; milk spiked at 40 ppb): 4 | % Pos (Color 1) (B.st. spores [1]; milk spiked at 40 ppb): 100% | Color 1 (B.st. spores [1]; milk spiked at 40 ppb): 5 | % Pos (Color 2) (B.st. spores [1]; milk spiked at 50 ppb): 100% | Color 2 (B.st. spores [1]; milk spiked at 50 ppb): 5 | % Pos (Color 1) (B.st. spores [1]; milk spiked at 50 ppb): 100% | Color 1 (B.st. spores [1]; milk spiked at 50 ppb): 5 | test result w/out receptor (B.st. spores [2]; [3]): +/− | test result With receptor (B.st. spores [2]; [3]): +/− | test result w/out receptor (B.st. spores [2]; [4]): + | test result With receptor (B.st. spores [2]; [4]): + | test result w/out receptor (B.st. spores [2]; [5]): + | test result With receptor (B.st. spores [2]; [5]): +

gentamicin
% Pos (Color 2) (B.st. spores [1]; milk spiked at 300 ppb): 100% | Color 2 (B.st. spores [1]; milk spiked at 300 ppb): 4 | % Pos (Color 1) (B.st. spores [1]; milk spiked at 300 ppb): 100% | Color 1 (B.st. spores [1]; milk spiked at 300 ppb): 4 | % Pos (Color 2) (B.st. spores [1]; milk spiked at 400 ppb): 100% | Color 2 (B.st. spores [1]; milk spiked at 400 ppb): 5 | % Pos (Color 1) (B.st. spores [1]; milk spiked at 400 ppb): 100% | Color 1 (B.st. spores [1]; milk spiked at 400 ppb): 5 | test result w/out receptor (B.st. spores [2]; [6]): +/− | test result With receptor (B.st. spores [2]; [6]): +/− | test result w/out receptor (B.st. spores [2]; [7]): +/− | test result With receptor (B.st. spores [2]; [7]): +/− | test result w/out receptor (B.st. spores [2]; [5]): +/− | test result With receptor (B.st. spores [2]; [5]): +/−
